Measurements as given in patent US4103008A, “7[2(2,3 Dioxopiperazin-1-yl-carbonylamino)substituted 2 phenylacetamido]-3-2'-thiadiazolyl cephalosporanic acid derivatives” (priority 1976, dated 1978).
In brackets after ≈: the same amount, converted by molar mass. Like-named read-outs stand apart in the source and are kept apart here.

Tests used:
[1] = test system: Salmonella enteritidis No. 11; experiment: In vitro antibacterial activity (MIC); format: cell-based; details: Salmonella enterica; Salmonella enteritidis No. 11; in vitro; sodium salts; read-out: MIC
[2] = test system: Proteus morganii C73-23; experiment: In vitro antibacterial activity (MIC); format: cell-based; details: Morganella morganii, C7323; Proteus morganii C73-23; in vitro; sodium salts; read-out: MIC
[3] = test system: Streptococcus faecalis ATCC 8043; experiment: In vitro antibacterial activity (MIC); format: cell-based; details: Enterococcus faecalis, ATCC8043; Streptococcus faecalis ATCC 8043; in vitro; sodium salts; read-out: MIC
[4] = test system: Pseudomonas aeruginosa C73-2; experiment: In vitro antibacterial activity (MIC); format: cell-based; details: C732; Pseudomonas aeruginosa C73-2; in vitro; sodium salts; read-out: MIC
[5] = test system: Enterobacter strain C73-17; experiment: In vitro antibacterial activity (MIC); format: cell-based; details: C7317
[6] = test system: Escherichia coli C 73-1; experiment: In vitro antibacterial activity (MIC); format: cell-based; details: C731
[7] = test system: Salmonella strain C 73-30; experiment: In vitro antibacterial activity (MIC); format: cell-based; details: C7330; Salmonella strain C 73-30; in vitro; sodium salts; read-out: MIC
Excerpt: (§1) Given below are the test results of in vitro antibacterial activity studies, serum concentrations and accumulative urinary excretions in rabbits and the protecting effects in mice, of some representative compounds of the invention.
(§2) The compounds used in the tests are shown in the following Table 1, but all of these compounds are in the form of the sodium salt.

[8] = test system: Salmonella strain C73-1; experiment: In vitro antibacterial activity (MIC); format: cell-based; details: C731; Salmonella strain C73-1; in vitro; sodium salts; read-out: MIC
Excerpt: as §1, §2

[9] = test system: Pseudomonas strain C73-83; experiment: In vitro antibacterial activity (MIC); format: cell-based; details: C7383; Pseudomonas strain C73-83; in vitro; sodium salts; read-out: MIC
Excerpt: as §1, §2

[10] = test system: Shigella dysenteriae shigae; experiment: microbe, parasite or virus in culture; format: cell-based
[11] = test system: Staphylococcus aureus FDA 209NIH, P-J C-1; experiment: In vitro antibacterial activity (MIC); format: cell-based; details: Staphylococcus aureus FDA 209NIH, P-J C-1; in vitro; sodium salts; read-out: MIC
[12] = test system: Serratia strain No. 1; experiment: In vitro antibacterial activity (MIC); format: cell-based; details: Serratia strain No. 1; in vitro; sodium salts; read-out: MIC
[13] = test system: Klebsilla pneumoniae; experiment: In vitro antibacterial activity (MIC); format: cell-based
[14] = test system: Pseudomonas aerugenosa E 2 strain; experiment: ED50 in Pseudomonas infection in mice; format: in vivo; details: ICR-JCL mouse, male, 20g; P. aerugenosa E 2 3.6 × 10^4 intraperitoneal; compound intramuscular after 2 hrs.; ED50 after 7 days; sodium salts
Excerpt: as §1, §2
Pseudomonas aerugenosa E 2 strain (3.6 × 10^4) was intraperitonealy injected to each group of 10 of ICR-JCL mouse (male, 20g). After 2 hrs., each of the test compounds was intramuscularly administered to the infected mice and the ED50 values were measured after 7 days.

[15] = test system: Pseudomonas strain C73-63; experiment: In vitro antibacterial activity (MIC); format: cell-based; details: C7363; Pseudomonas strain C73-63; in vitro; sodium salts; read-out: MIC
[16] = test system: Proteus morganii kono; experiment: In vitro antibacterial activity (MIC); format: cell-based; details: Morganella morganii; Proteus morganii kono; in vitro; sodium salts; read-out: MIC
[17] = Serum concentration and accumulative urinary excretion in rabbit; details: in vivo, im; for dose excreted at 6 h: 20 mg/kg; for concentration at 0.5 h: 20 mg/kg intramuscular, after 30 mins., sodium salts, Sarcina lutea assay
Description: as §1, §2
Each of the test compounds (20 mg/kg) was intramuscularly administered to one group of 3 rabbits, and the amounts of antibiotics were measured by a conventional method, using Sarcina lutea.

[18] = test system: Escherichia coli C 73-4; experiment: In vitro antibacterial activity (MIC); format: cell-based; details: C734; Escherichia coli C 73-4; in vitro; sodium salts; read-out: MIC
[19] = test system: Vibrio parahaemolyticus K - 3; experiment: In vitro antibacterial activity (MIC); format: cell-based; details: K3; Vibrio parahaemolyticus K - 3; in vitro; sodium salts; read-out: MIC
[20] = test system: Vibrio parahaemolyticus K - 5; experiment: In vitro antibacterial activity (MIC); format: cell-based; details: K5; Vibrio parahaemolyticus K - 5; in vitro; sodium salts; read-out: MIC
[21] = test system: Serratia strain No. 2; experiment: In vitro antibacterial activity (MIC); format: cell-based; details: Serratia strain No. 2; in vitro; sodium salts; read-out: MIC
[22] = test system: Bacillus substilis ATCC 6633; experiment: In vitro antibacterial activity (MIC); format: cell-based; details: ATCC6633; Bacillus substilis ATCC 6633; in vitro; sodium salts; read-out: MIC
[23] = Enterobacter strain C73-17, in vitro, sodium salts, read-out: MIC
[24] = Escherichia coli C 73-1, in vitro, sodium salts, read-out: MIC
[25] = Klebsilla pneumoniae, in vitro, sodium salts, read-out: MIC

| SMILES | MIC [1] | MIC [2] | MIC [3] | MIC [4] | MIC [7] | MIC [8] | MIC [9] | MIC [10] | MIC [11] | MIC [12] | ED50 in Pseudomonas infection in mice [14] | MIC [15] | MIC [16] | dose excreted at 6 h [17] | concentration at 0.5 h [17] | MIC [18] | MIC [19] | MIC [20] | MIC [21] | MIC [22] | also measured |
| --- | --- | --- | --- | --- | --- | --- | --- | --- | --- | --- | --- | --- | --- | --- | --- | --- | --- | --- | --- | --- | --- |
| CCN1CCN(C(=O)N[C@@H](C(=O)NC2C(=O)N3C(C(=O)O)=C(CSc4nncs4)CS[C@H]23)c2ccc(O)c(Cl)c2)C(=O)C1=O (single isomer, unassigned) [II, 7-[D(-)-α-(4-ethyl-2,3-dioxopiperazin-1-yl-carbonylamino)-m-chloro-p-hydroxyphenylacetamido]-3-(1,3,4-thiadiazol-2-yl-thiomethyl)-3-cephem-4-carboxylic acid] | < 0.05 µg/mL | 6.25 µg/mL | 1.56 µg/mL | 6.25 µg/mL | 1.56 µg/mL | 0.78 µg/mL | 12.5 µg/mL | < 0.05 µg/mL | 0.2 µg/mL | 3.13 µg/mL | 2.2 mg/mouse | 1.56 µg/mL | 3.13 µg/mL | 24% | 28800 ng/mL | 1.56 µg/mL | 12.5 µg/mL | 12.5 µg/mL | 6.25 µg/mL | 0.39 µg/mL | MIC [5, 23]: 12.5 µg/mL; MIC [6, 24]: 1.56 µg/mL; MIC [13, 25]: 0.78 µg/mL |
| CCN1CCN(C(=O)N[C@@H](C(=O)NC2C(=O)N3C(C(=O)O)=C(CSc4nncs4)CS[C@H]23)c2ccc(OC(C)=O)cc2)C(=O)C1=O (single isomer, unassigned) [III, 7-[D(-)-α-(4-ethyl-2,3-dioxopiperazin-1-yl-carbonylamino)-p-acetoxyphenylacetamido]-3-(1,3,4-thiadiazol-2-yl-thiomethyl)-3-cephem-4-carboxylic acid] | 1.56 µg/mL | 12.5 µg/mL | 1.56 µg/mL | 1.56 µg/mL | 0.78 µg/mL | 0.78 µg/mL | 25 µg/mL | 0.78 µg/mL (≈ 1.13 µM) | 12.5 µg/mL | 6.25 µg/mL | 2.6 mg/mouse | 6.25 µg/mL | 6.25 µg/mL | 48% | 62000 ng/mL | 3.13 µg/mL | 6.25 µg/mL | 6.25 µg/mL | 1.56 µg/mL | 12.5 µg/mL | MIC [5, 23]: 25 µg/mL; MIC [6, 24]: 3.13 µg/mL; MIC [13, 25]: 0.78 µg/mL |
| CCN1CCN(C(=O)N[C@@H](C(=O)NC2C(=O)N3C(C(=O)O)=C(CSc4nncs4)CS[C@H]23)c2ccc(OC(C)=O)c(Cl)c2)C(=O)C1=O (single isomer, unassigned) [IV, 7-[D(-)-α-(4-ethyl-2,3-dioxopiperazin-1-yl-carbonylamino)-m-chloro-p-acetoxyphenylacetamido]-3-(1,3,4-thiadiazol-2-yl-thiomethyl)-3-cephem-4-carboxylic acid] | 3.13 µg/mL | 12.5 µg/mL | 1.56 µg/mL | 3.13 µg/mL | 1.56 µg/mL | 1.56 µg/mL | 25 µg/mL | 0.39 µg/mL (≈ 0.539 µM) | 6.25 µg/mL | 3.13 µg/mL | 1.8 mg/mouse | 3.13 µg/mL | 3.13 µg/mL | 27% | 34900 ng/mL | 6.25 µg/mL | 12.5 µg/mL | 12.5 µg/mL | 3.13 µg/mL | 6.25 µg/mL | MIC [5, 23]: 25 µg/mL; MIC [6, 24]: 6.25 µg/mL; MIC [13, 25]: 0.78 µg/mL |
| CCOC(=O)Oc1ccc([C@@H](NC(=O)N2CCN(CC)C(=O)C2=O)C(=O)NC2C(=O)N3C(C(=O)O)=C(CSc4nncs4)CS[C@H]23)cc1 (single isomer, unassigned) [V, 7-[D(-)-α-(4-ethyl-2,3-dioxopiperazin-1-yl-carbonylamino)-p-ethoxycarbonyloxyphenylacetamido]-3-(1,3,4-thiadiazol-2-yl-thiomethyl)-3-cephem-4-carboxylic acid] | 0.2 µg/mL | 12.5 µg/mL | 12.5 µg/mL | 6.25 µg/mL | 1.56 µg/mL | 1.56 µg/mL | 25 µg/mL | 0.78 µg/mL (≈ 1.08 µM) | 0.39 µg/mL | 3.13 µg/mL | 1.0 mg/mouse | 6.25 µg/mL | 3.13 µg/mL | 24.1% | 43000 ng/mL | 3.13 µg/mL | 6.25 µg/mL | 6.25 µg/mL | 3.13 µg/mL | 0.78 µg/mL | MIC [5, 23]: 3.13 µg/mL; MIC [6, 24]: 1.56 µg/mL; MIC [13, 25]: 0.39 µg/mL |
| CCOC(=O)Oc1ccc([C@@H](NC(=O)N2CCN(CC)C(=O)C2=O)C(=O)NC2C(=O)N3C(C(=O)O)=C(CSc4nncs4)CS[C@H]23)cc1Cl (single isomer, unassigned) [VI, 7-[D(-)-α-(4-ethyl-2,3-dioxopiperazin-1-yl-carbonylamino)-m-chloro-p-ethoxycarbonyloxyphenylacetamido]-3-(1,3,4-thiadiazol-2-yl-thiomethyl)-3-cephem-4-carboxylic acid] | 0.2 µg/mL | 12.5 µg/mL | 6.25 µg/mL | 12.5 µg/mL | 3.13 µg/mL | 3.13 µg/mL | 12.5 µg/mL | 1.56 µg/mL (≈ 2.07 µM) | 0.39 µg/mL | 6.25 µg/mL | 0.8 mg/mouse | 3.13 µg/mL | 3.13 µg/mL | 17.4% | 19400 ng/mL | 3.13 µg/mL | 12.5 µg/mL | 12.5 µg/mL | 6.25 µg/mL | 0.39 µg/mL | MIC ([5]; Enterobacter): 1.56 µg/mL (≈ 2.07 µM); MIC ([6]; Escherichia coli): 1.56 µg/mL (≈ 2.07 µM); MIC [13]: 1.56 µg/mL (≈ 2.07 µM) |
